Data taken from paper PMC6083693, “Ligand-based pharmacophore model for the discovery of novel CXCR2 antagonists as anti-cancer metastatic agents” (Royal Society Open Science, 2018).
Where two headings read alike, the source gives them in different places.

How the values were obtained:
Type in all cases: cell-based
[1] = biological target: T1, CXCR2 (Homo sapiens, UniProt P25025); assay: CXCR2 antagonistic activity assay (IL-8-induced intracellular calcium change, Fluo-4 AM, HEK293 cells stably expressing Gα16 and CXCR2); conditions: for CXCR2 antagonistic activity (in words): HEK293 cells expressing Gα16 and CXCR2
T1 construct: expressed in transfected cells; host or cells: HEK293 cells stably expressing Gα16 and CXCR2
T1 sequence (P25025 1-360): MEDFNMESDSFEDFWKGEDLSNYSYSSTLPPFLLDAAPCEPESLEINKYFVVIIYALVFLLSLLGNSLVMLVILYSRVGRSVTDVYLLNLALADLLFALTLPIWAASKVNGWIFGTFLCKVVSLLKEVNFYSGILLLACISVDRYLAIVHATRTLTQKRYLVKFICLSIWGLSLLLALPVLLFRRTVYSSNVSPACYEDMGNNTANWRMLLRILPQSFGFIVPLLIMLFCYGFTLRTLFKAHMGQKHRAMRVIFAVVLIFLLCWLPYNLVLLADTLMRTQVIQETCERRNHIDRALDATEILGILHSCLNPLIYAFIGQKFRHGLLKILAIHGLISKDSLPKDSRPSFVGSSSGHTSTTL
Protocol: Human embryonic kidney 293 (HEK293) cells stably expressing Gα16 and CXCR2 were seeded onto 96-well plates and incubated for 24 h. Cells were loaded with 2 µmol l^−1 Fluo-4 AM in Hank's balanced salt solution (HBSS, containing KCl 5.4 mmol l^−1, Na2HPO4 0.3 mmol l^−1, KH2PO4 0.4 mmol l^−1, NaHCO3 4.2 mmol l^−1, CaCl2 1.3 mmol l^−1, MgCl2 0.5 mmol l^−1, Mg2SO4 0.6 mmol l^−1, NaCl 137 mmol l^−1, BSA 5 g l^−1, glucose 5.6 mmol l^−1 and sulfinpyrazone 250 µmol l^−1, pH 7.4) at 37°C for 45 min. The excess dye was removed and 50 µl of HBSS containing test compounds was added. After incubation at room temperature for 10 min, 25 µl of HBSS containing IL-8 was dispensed into the well using a FlexStation II microplate reader (Molecular Devices, Sunnyvale, CA, USA), and intracellular calcium change was recorded with an excitation wavelength of 485 nm and an emission wavelength of 525 nm. The half maximal inhibitory concentrations (IC50) of compounds were determined with the […] PRISM software by constructing their dose–response curves.

[2] = system: NCI-H1299 cells; assay: Anti-proliferation assay (MTT); conditions: NCI-H1299, 0.1, 1, 10 and 100 µg ml^−1, 72 h
Protocol: NCI-H1299 cells (provided by Tumor Pharmacology and Endocrine Laboratory, College of Pharmaceutical Sciences, Zhe Jiang University) were seeded in 96-well plates at a density of 4000 cells well^−1. After 24 h of adherence, cells were incubated with medium alone or medium containing test compounds for 72 h. Four different concentrations (100, 10, 1 and 0.1 µg ml^−1) of both antagonists were used. Cell proliferation was determined by the thiazolyl blue tetrazolium bromide (MTT) assay. Growth inhibition was calculated as % = [1 − (A/B)] × 100, where A and B were the absorbance of treated and untreated cells, respectively.
The highly metastatic NCI-H1299 lung cancer cell line was selected for the following in vitro biological evaluation.

[3] = system: NCI-H1299 cells; assay: Wound healing assay (cell migration); conditions: Homo sapiens; NCI-H1299, 50 µg ml^−1, 48 h treatment; read-out: cell migration inhibitory rate
Protocol: NCI-H1299 cells (5 × 10^5 cell well^−1) were seeded in a six-well tissue culture plate and grown to 90% confluence. After the medium was removed, a gap with constant width was created in the centre of the cell well by scratching the monolayer with a sterile yellow micropipette tip. […] The wound closure was monitored and photographed at 0, 12, 24, 36 and 48 h with the IMAGEPRO software. The cell migration inhibitory rate was calculated as % = [1 − (0 h wound area − 12, 24, 36 or 48 h wound area)/0 h wound area] × 100.
The wound area was calculated with the IMAGEPRO software.

[4] = HEK293 cells expressing Gα16 and CXCR2, IL-8 stimulated calcium change, read-out: CXCR2 IC50

IC50 [1, 4] | SMILES | other results
76 µM | CN(C)C(=O)c1cccc(Nc2nnc(-c3ccccc3)[nH]2)c1O [Compound 1a, 2-hydroxy-N,N-dimethyl-3-((5-phenyl-4H-1,2,4-triazol-3-yl)amino)benzamide] | 
18.5 µM | N#Cc1ccc(Nc2nnc(-c3ccccc3)[nH]2)c(O)c1 [Compound 1b, 3-hydroxy-4-((5-phenyl-4H-1,2,4-triazol-3-yl)amino)benzonitrile] | 
> 100 µM | CN(C)C(=O)c1cccc(Nc2nccc(Nc3ccccc3)n2)c1O [Compound 2, 2-hydroxy-N,N-dimethyl-3-((4-(phenylamino)pyrimidin-2-yl)amino)benzamide] | CXCR2 antagonistic activity (in words) [1]: loss of CXCR2 antagonistic activity
> 100 µM | CN(C)C(=O)c1cccc(Nc2nn(Cc3ccccc3)c(=O)[nH]2)c1O [Compound 3, 3-((1-benzyl-5-oxo-4,5-dihydro-1H-1,2,4-triazol-3-yl)amino)-2-hydroxy-N,N-dimethylbenzamide] | CXCR2 antagonistic activity (in words) [1]: loss of CXCR2 antagonistic activity

The next lines start with the compound.

SMILES | IC50 [1, 4] | other results
N#Cc1ccc(Nc2nnc(-c3ccccc3Br)[nH]2)c(O)c1 [Compound 1c, 4-((5-(2-bromophenyl)-4H-1,2,4-triazol-3-yl)amino)-3-hydroxybenzonitrile] | 25.4 µM | 
N#Cc1ccc(Nc2nnc(-c3ccc(C(F)(F)F)cc3)[nH]2)c(O)c1 [Compound 1d, 3-hydroxy-4-((5-(4-(trifluoromethyl)phenyl)-4H-1,2,4-triazol-3-yl)amino)benzonitrile] | > 100 µM | 
CC(C)S(=O)(=O)c1c(Cl)ccc(Nc2nnc(-c3ccccc3)[nH]2)c1O [Compound 1e, 3-chloro-2-(isopropylsulfonyl)-6-((5-phenyl-4H-1,2,4-triazol-3-yl)amino)phenol] |  | cytotoxicity (growth inhibition, MTT) [2]: no cytotoxicity; inhibition at 50 µg/mL [3]: 72%; IC50 [1]: 14.8 µM
